Results on eight compounds are retold here after patent publication US20170081338A1, “SUBSTITUTED HETEROARYL COMPOUNDS AND METHODS OF USE” (Sunshine Lake Pharma Co., Ltd., priority 2015, published 2017).

Usually CLint scaled stands for a measure of how fast metabolising enzymes remove a compound, apart from limits set by blood flow. One may read the AUC(0-t) as exposure summed from dosing to a finite time, without extrapolation to infinity. Usually IC50 stands for the point on the concentration scale where inhibition reaches its midpoint.

Data set [1] can be described thus: Compound stability in human liver microsomes. The conditions noted are these: pH 7.4; for half-life at 5 μM: human liver microsomes 0.5 mg protein/mL, compound 5 μM, NADPH, 37° C., read-out: Human T1/2; for CLint scaled at 5 μM: human liver microsomes, in vivo CLint extrapolated. The format is in vitro ADME. An outline of the steps:
(§1)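 LC/MS/MS read-out of parent remaining, as % of t=0, after 0, 5, 10, 15, 30 and 60 min at 37° C. Mix: microsomes 0.5 mg/mL, test compound 5 μM, NADPH 1.0 mM, phosphate pH 7.4. Denatured microsomes served as negative control. In vivo CLint extrapolated.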

Data set [2] in a line: Compound stability in rat liver microsomes. The format is in vitro ADME. As to conditions: pH 7.4; for half-life at 5 μM: rat liver microsomes 0.5 mg protein/mL, compound 5 μM, NADPH, 37° C., read-out: Rat T1/2; for CLint scaled at 5 μM: rat liver microsomes, in vivo CLint extrapolated. An outline of the steps: as §1
A short description of data set [3]: Pharmacokinetics after intravenous and oral administration in rats. The data set is classed as in vivo. The conditions noted are these: for Clearance (CL) after iv dosing / AUC(0-t) / half-life / Vd: dose 1 mg/kg, iv dosing; for F: oral bioavailability; for AUC(0-t) / half-life / Vd: rat, plasma; for Vd: read-out: Vss. An outline of the steps: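 Compounds dosed IV at 0.5, 1 or 2 mg/kg and orally at 0.5, 1, 5 or 10 mg/kg in rats, as solution, suspension or capsule formulations. Serial blood sampled out to 24 h and plasma stored frozen. Plasma levels quantified by LC/MS/MS in ESI MRM mode.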

Data set [4] deals with T1, Aurora-A (h) (Homo sapiens, UniProt O14965).
T1 construct: purchased Millipore UK Ltd (contract assay service)
T1 sequence (O14965 1-403): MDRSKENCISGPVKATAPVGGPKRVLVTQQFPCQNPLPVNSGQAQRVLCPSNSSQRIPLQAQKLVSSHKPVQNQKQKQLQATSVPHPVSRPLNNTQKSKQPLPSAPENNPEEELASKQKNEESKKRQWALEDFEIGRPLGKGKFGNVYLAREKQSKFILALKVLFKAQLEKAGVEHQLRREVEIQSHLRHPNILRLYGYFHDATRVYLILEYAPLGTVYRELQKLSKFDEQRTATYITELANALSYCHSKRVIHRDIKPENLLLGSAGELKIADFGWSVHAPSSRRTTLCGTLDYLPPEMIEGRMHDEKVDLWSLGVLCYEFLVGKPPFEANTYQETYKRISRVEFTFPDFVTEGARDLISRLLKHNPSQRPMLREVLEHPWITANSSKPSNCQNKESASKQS
The experiment in a line: Aurora-A (h) kinase assay. The data set is classed as biochemical. The method, then: (§2) The above assay procedure can be used to determine the IC50 for inhibition and/or the inhibition constant, Ki. The IC50 is defined as the concentration of compound required to reduce the enzyme activity by 50% under the condition of the assay. The IC50 value is estimated by preparing a 10 point curve using a 1/2 log dilution series (for example, a typical curve may be prepared using the following compound concentrations: 3 μM, 1 μM, 0.3 μM, 0.1 μM, 0.03 μM, 0.01 μM, 0.003 μM, 0.001 μM, 0.0003 μM and 0 μM).
Aurora-A (h) is incubated with 8 mM MOPS pH 7.0, 0.2 mM EDTA, 200 μM LRRASLG (Kemptide), 10 mM MgAcetate and [γ-^33P-ATP] (specific activity approx. 500 cpm/pmol, concentration as required). The reaction is initiated by the addition of the MgATP mix. After incubation for 40 minutes at room temperature, the reaction is stopped by the addition of 3% phosphoric acid solution. 10 μL of the reaction is then spotted onto a P30 filtermat and washed three times for 5 minutes in 75 mM phosphoric acid and once in methanol prior to drying and scintillation counting.
(§3) The kinase assays described herein were performed at Millipore UK Ltd, Dundee Technology Park, Dundee DD2 1SW, UK.

Data set [5] addresses T2, Aurora-B (h) (Homo sapiens, UniProt Q96GD4).
T2 construct: purchased Millipore UK Ltd (contract assay service)
Put plainly: Aurora-B (h) kinase assay. The format is biochemical. The method, then:
Kinase assays can be performed by measurement of incorporation of γ-^33P ATP into immobilized myelin basic protein (MBP). High binding white 384 well plates (Greiner) are coated with MBP (Sigma #M-1891) by incubation of 60 μL/well of 20 μg/mL MBP in Tris-buffered saline (TBS; 50 mM Tris pH 8.0, 138 mM NaCl, 2.7 mM KCl) for 24 h at 4° C. Plates are washed 3× with 100 μL TBS. Kinase reactions are carried out in a total volume of 34 μL in kinase buffer (according to the need to make, for example, 5 mM Hepes pH 7.6, 15 mM NaCl, 0.01% bovine gamma globulin (Sigma #1-5506), 10 mM MgCl2, 1 mM DTT, 0.02% TritonX-100). Compound dilutions are performed in DMSO and added to assay wells to a final DMSO concentration of 1%. Each data point is measured in duplicate, and at least two duplicate assays are performed for each individual compound determination. Enzyme is added to final concentrations of 10 nM or 20 nM, for example. A mixture of unlabeled ATP and γ-^33P ATP is added to start the reaction (2×10^6 cpm of γ-^33P ATP per well (3000 Ci/mmole) and 10 μM unlabeled ATP, typically. The reactions are carried out for 1 h at room temperature with shaking. Plates are washed 7× with TBS, followed by the addition of 50 µL/well scintillation fluid (Wallac). Plates are read using a Wallac Trilux counter. This is only one format of such assays; various other formats are possible, as known to one skilled in the art.
as §2
Aurora-B (h) is incubated with 8 mM MOPS pH 7.0, 0.2 mM EDTA, 30 μM AKRRRLSSLRA, 10 mM MgAcetate and [γ-^33PATP] (specific activity approx. 500 cpm/pmol, concentration as required). The reaction is initiated by the addition of the MgATP mix. After incubation for 40 minutes at room temperature, the reaction is stopped by the addition of a 3% phosphoric acid solution. 10 μL of the reaction is then spotted onto a P30 filtermat and washed three times for 5 minutes in 75 mM phosphoric acid and once in methanol prior to drying and scintillation counting.
as §3

T2 sequence (Q96GD4 whole entry): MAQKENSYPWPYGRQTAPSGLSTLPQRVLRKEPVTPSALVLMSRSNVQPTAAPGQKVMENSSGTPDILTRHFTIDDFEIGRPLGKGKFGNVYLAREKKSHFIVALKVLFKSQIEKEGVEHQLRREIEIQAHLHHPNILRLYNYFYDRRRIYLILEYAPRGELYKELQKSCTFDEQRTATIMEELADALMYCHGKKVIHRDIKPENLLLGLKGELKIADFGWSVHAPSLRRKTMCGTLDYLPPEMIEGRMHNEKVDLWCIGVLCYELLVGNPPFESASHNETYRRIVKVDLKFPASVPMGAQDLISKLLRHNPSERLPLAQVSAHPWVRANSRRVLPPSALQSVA

Take `CC(C)CS(=O)(=O)N[C@@H]1COC2C1OC[C@@H]2Nc1nc(Nc2cnn(C)c2)ncc1Cl` (stereo partly drawn) [Ex. 13, N-((3R,6S)-6-((5-chloro-2-((1-methyl-1H-pyrazol-4-yl)amino)pyrimidin-4-yl)amino)hexahydrofuro[3,2-b]furan-3-yl)-2-methylpropane-1-sulfonamide]: in data set [1], the half-life at 5 μM came to 32.9 min and the CLint scaled at 5 μM was 52.8 mL/min/kg. In data set [2], the half-life at 5 μM is 41.4 min and the intrinsic clearance (CLint scaled) at 5 μM was 60 mL/min/kg. In addition, in data set [3], the “Clearance (CL) after iv dosing” value was 57 mL/min/kg, the F was found to be 74.5%, the AUC(0-t) was 291 ng·h/mL and the half-life is 58.2 min. Moreover, the Vd in data set [3] was 2.56 L/kg. Besides, inhibition in data set [4] was half-maximal at 1.03 µM (IC50).
On to `Cn1cc(Nc2ncc(Cl)c(N[C@@H]3COC4C3OC[C@@H]4NS(=O)(=O)C3CCCC3)n2)cn1` (stereo partly drawn) [Ex. 14, N-((3S,6R)-6-((5-chloro-2-((1-methyl-1H-pyrazol-4-yl)amino)pyrimidin-4-yl)amino)hexahydrofuro[3,2-b]furan-3-yl)cyclopentanesulfonamide], for which, in data set [1], the half-life at 5 μM was 24.7 min and the CLint scaled at 5 μM is 70.4 mL/min/kg. In addition, in data set [2], the half-life at 5 μM is 47.7 min and the CLint scaled at 5 μM was 52.1 mL/min/kg. Moreover, in data set [3], the “Clearance (CL) after iv dosing” value was 33.3 mL/min/kg, the F turned out to be 91.9%, the AUC(0-t) came to 497 ng·h/mL and the half-life is 54 min. The Vd in data set [3] was found to be 1.08 L/kg. In addition, the IC50 in data set [4] was determined as 0.051 µM.
Turning to `CC(C)S(=O)(=O)N[C@H]1COC2C1OC[C@H]2Nc1nc(Nc2cnn(C)c2)ncc1Cl` (stereo partly drawn) [Ex. 15, N-((3S,6R)-6-((5-chloro-2-((1-methyl-1H-pyrazol-4-yl)amino)pyrimidin-4-yl)amino)hexahydrofuro[3,2-b]furan-3-yl)propane-2-sulfonamide], in data set [1], the half-life at 5 μM was 143 min and the intrinsic metabolic clearance (CLint scaled) at 5 μM was 12.1 mL/min/kg. Moreover, in data set [2], the half-life at 5 μM worked out at 91.6 min and the CLint scaled at 5 μM is 27.1 mL/min/kg. In addition, in data set [3], the “Clearance (CL) after iv dosing” value came to 23.2 mL/min/kg, the F came to 86.5%, the exposure AUC(0-t) amounted to 726 ng·h/mL and the half-life was 47.4 min. Further, the Vd in data set [3] was determined as 1.11 L/kg. This compound also returned an IC50 in data set [4] of 0.034 µM.
With `Cn1cc(Nc2ncc(Cl)c(N[C@@H]3COC4C3OC[C@@H]4NS(=O)(=O)C3CCOC3)n2)cn1` (stereo partly drawn) [Ex. 20, N-((3S,6R)-6-((5-chloro-2-((1-methyl-1H-pyrazol-4-yl)amino)pyrimidin-4-yl)amino)hexahydrofuro[3,2-b]furan-3-yl)tetrahydrofuran-3-sulfonamide], in data set [1], the half-life at 5 μM came to 75.5 min and the CLint scaled at 5 μM was 23 mL/min/kg. In addition, in data set [2], the half-life at 5 μM stood at 116 min and the CLint scaled at 5 μM is 21.5 mL/min/kg. Moreover, in data set [3], the “Clearance (CL) after iv dosing” value was determined as 60.3 mL/min/kg, the F was 42.5%, the AUC(0-t) was found to be 284 ng·h/mL and the half-life is 27.6 min. Besides, in data set [3], the Vd amounted to 1.41 L/kg. This compound showed an IC50 in data set [4] of 0.041 µM.
On to `Cn1cc(Nc2ncc(Cl)c(N[C@@H]3COC4C3OC[C@@H]4NS(=O)(=O)CC(C)(C)C)n2)cn1` (stereo partly drawn) [Ex. 30, N-((3S,6R)-6-((5-chloro-2-((1-methyl-1H-pyrazol-4-yl)amino)pyrimidin-4-yl)amino)hexahydrofuro[3,2-b]furan-3-yl)-2,2-dimethylpropane-1-sulfonamide], for which, in data set [3], the “Clearance (CL) after iv dosing” value was found to be 24.2 mL/min/kg, the F is 67.4%, the exposure AUC(0-t) is 696 ng·h/mL and the half-life was 37.8 min. Also, the Vd in data set [3] was found to be 0.82 L/kg. The IC50 in data set [4] came to 0.017 µM. The compound also registered an IC50 in data set [5] of 0.008 µM.
In the case of `Cn1cc(Nc2ncc(Cl)c(N[C@@H]3COC4C3OC[C@@H]4NS(=O)(=O)CC3CCC3)n2)cn1` (stereo partly drawn) [Ex. 31, N-((3S,6R)-6-((5-chloro-2-((1-methyl-1H-pyrazol-4-yl)amino)pyrimidin-4-yl)amino)hexahydrofuro[3,2-b]furan-3-yl)-1-cyclobutylmethanesulfonamide], in data set [3], the “Clearance (CL) after iv dosing” value came to 18.8 mL/min/kg, the F was determined as 88.1%, the AUC(0-t) is 947 ng·h/mL and the half-life is 37.2 min. The Vd in data set [3] is 0.71 L/kg. This compound registered an IC50 in data set [4] of 0.012 µM. This compound also returned a half-maximal inhibitory concentration (IC50) in data set [5] of 0.018 µM.
On to `CCC(C)CS(=O)(=O)N[C@H]1COC2C1OC[C@H]2Nc1nc(Nc2cnn(C)c2)ncc1Cl` (stereo partly drawn) [Ex. 33, N-((3S,6R)-6-((5-chloro-2-((1-methyl-1H-pyrazol-4-yl)amino)pyrimidin-4-yl)amino)hexahydrofuro[3,2-b]furan-3-yl)-2-methylbutane-1-sulfonamide], for which, in data set [3], the “Clearance (CL) after iv dosing” value was 23.2 mL/min/kg, the F stood at 53.6%, the area under the curve AUC(0-t) was found to be 725 ng·h/mL and the half-life was 17.4 min. The Vd in data set [3] stood at 0.57 L/kg. In data set [4], this compound displayed an IC50 of 0.018 µM. The midpoint of inhibition in data set [5], the IC50, lay at 0.025 µM.
With `Cn1cc(Nc2ncc(Cl)c(N[C@@H]3COC4C3OC[C@@H]4NS(=O)(=O)CC3CCCO3)n2)cn1` (stereo partly drawn) [Ex. 34, N-((3S,6R)-6-((5-chloro-2-((1-methyl-1H-pyrazol-4-yl)amino)pyrimidin-4-yl)amino)hexahydrofuro[3,2-b]furan-3-yl)-1-(tetrahydrofuran-2-yl)methanesulfonamide], in data set [3], the F is given as 28.9%, the exposure AUC(0-t) amounted to 1540 ng·h/mL, the half-life is 37.8 min and the Vd was 1.23 L/kg. The compound further showed a 50% inhibitory concentration (IC50) in data set [4] of 0.024 µM. In data set [5], the half-maximal inhibitory concentration (IC50) was 0.021 µM.
